“And” between values parts separate entries of the source, which are not always exact repeats. Equal values may be shown once.
Each molecule was assayed on Vero TMPRSS2 cells (assay: Cytotoxicity at single concentration, CellTiter-Glo ATP quantitation). Settings: 50 uM, 72 hours.
Format: cell-based, African Green Monkey
Procedure: Cytotoxicity assays were conducted to measure toxicity of compounds at single concentration in Vero TMPRSS2 cells by using quantitation of ATP to indicate metabolically active cells. Vero cells (derived from African Green Monkey kidney epithelial tissue) were grown in Dulbecco's Modified Eagle Medium (DMEM) supplemented with 10% fetal bovine serum (FBS), 10 mM HEPES buffered saline, and 2 mM L-glutamine. 5,000 cells per well were seeded into a 96-well plate containing two-fold titrations of compounds. The concentration of DMSO was maintained at 0.5% for all wells to avoid toxicity. The plates were incubated for 72 hours, at which point they were acclimatized to room temperature for 30 minutes. 25 μL of the substrate/buffer solution from the Promega CellTiter-Glo Luminescent Cell Viability Assay kit was added to each well. The plates were shaken at a low orbital speed for 3 minutes and let rest at room temperature for 10 minutes, after which luminescence was measured using a BioTek Synergy H1 Microplate Reader H1M. The positive control was defined as wells containing cells without compounds.
Percent viability was calculated as follows: […]
For `CO[C@H]1[C@H](O[C@H]([C@H]2O[C@@H](n3ccc(=O)[nH]c3=O)[C@H](O)[C@@H]2O)[C@H](NCCCNC(=O)[C@H](CC(C)C)NC(=O)[C@@H](NC(=O)N[C@H](C(=O)O)C(C)C)[C@@H]2CCN=C(N)N2)C(=O)O)O[C@H](CN)[C@H]1O` [Muraymycin D1, reference compound], the “% Cell Viability Average” value was 92.38% and 91.22% and 89.63%, the “% Cell Viability Replicate 1” value was 93.83% and 94.27% and 87.87% and the “% Cell Viability Replicate 2” value was 90.92% and 88.18% and 91.39%.
For Capuramycin B [reference compound], the “% Cell Viability Average” value was 92.07% and 91.55% and 94.73%, the “% Cell Viability Replicate 1” value was 90.49% and 90.38% and 96.50% and the “% Cell Viability Replicate 2” value was 93.64% and 92.73% and 92.96%.

Same assay, conditions: 100 uM, 72 hours
In the case of `CCCCCCC#Cc1cncc(-c2nnc(SCc3ccc(C#N)cc3)n2C)c1` [drawing 98], the “% Cell Viability Average” value is reported as 66.33%, the “% Cell Viability Replicate 1” value is reported as 75.34% and the “% Cell Viability Replicate 2” value is reported as 57.31%.
With `CCCCCCC#Cc1cncc(-c2nnc(SCc3ccc([N+](=O)[O-])cc3)n2C)c1` [drawing 106] the “% Cell Viability Average” value was 34.59%, the “% Cell Viability Replicate 1” value was 39.61% and the “% Cell Viability Replicate 2” value was 29.56%.
In the case of `CCCCCCC#Cc1cncc(-c2nnc(SCc3ccc(Cl)cc3)n2C)c1` [drawing 100], the “% Cell Viability Average” value is reported as 54.05%, the “% Cell Viability Replicate 1” value is reported as 53.54% and the “% Cell Viability Replicate 2” value is reported as 54.56%.
`CCCCCCC#Cc1cncc(-c2nnc(SCc3ccc(Cl)cc3)n2C)c1` [drawing 114] was tested, and the “% Cell Viability Average” value was 2.36%, the “% Cell Viability Replicate 1” value was 2.25% and the “% Cell Viability Replicate 2” value was 2.47%.
For `CCCCCCC#Cc1cncc(-c2nnc(SCc3ccc([N+](=O)[O-])o3)n2C)c1` [drawing 120], the “% Cell Viability Average” value was 1.31%, the “% Cell Viability Replicate 1” value was 1.30% and the “% Cell Viability Replicate 2” value was 1.31%.
In the case of `CCCCCCC#Cc1cncc(-c2nnc(SCc3ccc(Br)cc3)n2C)c1` [drawing 103], the “% Cell Viability Average” value is reported as 42.17%, the “% Cell Viability Replicate 1” value is reported as 42.94% and the “% Cell Viability Replicate 2” value is reported as 41.40%.
For `CCCCCCC#Cc1cncc(-c2nnc(S)n2C)c1`, the “% Cell Viability Average” value was 0.76%, the “% Cell Viability Replicate 1” value was 0.70% and the “% Cell Viability Replicate 2” value was 0.82%.
With `CCCCCCC#Cc1cncc(-c2nnc(SCc3ccc(Cl)cc3)n2C)c1` [drawing 102] the “% Cell Viability Average” value was 42.78%, the “% Cell Viability Replicate 1” value was 47.04% and the “% Cell Viability Replicate 2” value was 38.53%.
`CCCCCCC#Cc1cncc(-c2nnc(SCc3ccc(Cl)c(Cl)c3)n2C)c1` [drawing 111] was tested, and the “% Cell Viability Average” value was 18.98%, the “% Cell Viability Replicate 1” value was 19.98% and the “% Cell Viability Replicate 2” value was 17.98%.
In the case of `CCCCCCC#Cc1cncc(-c2nnc(SCc3ccc(OC)cc3)n2C)c1` [drawing 99], the “% Cell Viability Average” value is reported as 54.63%, the “% Cell Viability Replicate 1” value is reported as 60.30% and the “% Cell Viability Replicate 2” value is reported as 48.95%.
`CCCCCCC#Cc1cncc(-c2nnc(SCc3cccc([N+](=O)[O-])c3)n2C)c1` was tested, and the “% Cell Viability Average” value was 26.47%, the “% Cell Viability Replicate 1” value was 26.28% and the “% Cell Viability Replicate 2” value was 26.66%.
`CCCCCCC#Cc1cccc(-c2nnc(SCc3ccc(Cl)cc3)n2C)c1` [drawing 115] was tested, and the “% Cell Viability Average” value was 1.77%, the “% Cell Viability Replicate 1” value was 1.97% and the “% Cell Viability Replicate 2” value was 1.58%.
In the case of `CCCCCCC#Cc1cncc(-c2nnc(SCc3ccc(Cl)cc3)n2C)c1` [drawing 117], the “% Cell Viability Average” value is reported as 1.56%, the “% Cell Viability Replicate 1” value is reported as 1.41% and the “% Cell Viability Replicate 2” value is reported as 1.70%.
In the case of `CCCCCCC#Cc1cncc(-c2nnc(SCc3ccc(F)cc3)n2C)c1` [drawing 110], the “% Cell Viability Average” value is reported as 19.61%, the “% Cell Viability Replicate 1” value is reported as 32.71% and the “% Cell Viability Replicate 2” value is reported as 6.50%.
`CCCCCCC#Cc1cncc(-c2nnc(SCc3ccc(C)cc3)n2C)c1` [drawing 109] was tested, and the “% Cell Viability Average” value was 20.46%, the “% Cell Viability Replicate 1” value was 20.58% and the “% Cell Viability Replicate 2” value was 20.35%.
For `CCCCCCC#Cc1cncc(-c2nnc(SCc3ccc(Cl)cc3)n2C2CC2)c1` [drawing 107], the “% Cell Viability Average” value was 33.69%, the “% Cell Viability Replicate 1” value was 32.40% and the “% Cell Viability Replicate 2” value was 34.99%.
In the case of `CCCCCCC#Cc1cncc(-c2nnc(SC[C@H]3O[C@@H](n4ccc(=O)[nH]c4=O)[C@@H]4OC(C)(C)O[C@@H]43)n2C)c1`, the “% Cell Viability Average” value is reported as 1.10%, the “% Cell Viability Replicate 1” value is reported as 1.02% and the “% Cell Viability Replicate 2” value is reported as 1.19%.
`CCCCCCC#Cc1cncc(-c2nnc(SCc3ccc(C(F)(F)F)cc3)n2C)c1` [drawing 96] was tested, and the “% Cell Viability Average” value was 70.35%, the “% Cell Viability Replicate 1” value was 74.34% and the “% Cell Viability Replicate 2” value was 66.36%.
For `C#Cc1cncc(-c2nnc(SCc3ccc(Cl)cc3)n2C)c1` [drawing 113], the “% Cell Viability Average” value was 3.10%, the “% Cell Viability Replicate 1” value was 3.02% and the “% Cell Viability Replicate 2” value was 3.18%.
`CCCCCCC#Cc1cncc(-c2nnc(SCCn3c([N+](=O)[O-])cnc3C)n2C)c1` [drawing 121] was tested, and the “% Cell Viability Average” value was 1.19%, the “% Cell Viability Replicate 1” value was 1.17% and the “% Cell Viability Replicate 2” value was 1.20%.
In the case of `CCCCCCC#Cc1cncc(-c2nnc(SCc3ccc(Cl)cc3)n2C)c1` [drawing 116], the “% Cell Viability Average” value is reported as 1.67%, the “% Cell Viability Replicate 1” value is reported as 1.57% and the “% Cell Viability Replicate 2” value is reported as 1.76%.
`CCCCCCC#Cc1cncc(-c2nnc(SCCCn3ccc(=O)[nH]c3=O)n2C)c1` was tested, and the “% Cell Viability Average” value was 14.14%, the “% Cell Viability Replicate 1” value was 9.07% and the “% Cell Viability Replicate 2” value was 19.21%.

Same assay, conditions: 125 uM, 72 hours
In the case of `CCCCCCC#Cc1cncc(C(=O)NN)c1`, the “% Cell Viability Average” value is reported as 36.66%, the “% Cell Viability Replicate 1” value is reported as 34.62% and the “% Cell Viability Replicate 2” value is reported as 38.69%.
For `CCCCCCC#Cc1cncc(-c2nnc(SCc3ccc(Cl)cc3)[nH]2)c1` [drawing 119], the “% Cell Viability Average” value was 1.41%, the “% Cell Viability Replicate 1” value was 1.43% and the “% Cell Viability Replicate 2” value was 1.38%.
With `CCCCCCC#Cc1cncc(-c2nnc(SCc3ccc(Cl)cc3)[nH]2)c1` [drawing 97] the “% Cell Viability Average” value was 67.98%, the “% Cell Viability Replicate 1” value was 68.39% and the “% Cell Viability Replicate 2” value was 67.58%.
`CCCCCCC#Cc1cncc(-c2nnc(SCc3cc(F)cc(F)c3)n2C)c1` [drawing 123] was tested, and the “% Cell Viability Average” value was 0.96%, the “% Cell Viability Replicate 1” value was 0.98% and the “% Cell Viability Replicate 2” value was 0.94%.
In the case of `CCCCCCC#Cc1cncc(-c2nnc(SCc3cccc(Cl)c3)n2C)c1` [drawing 118], the “% Cell Viability Average” value is reported as 1.53%, the “% Cell Viability Replicate 1” value is reported as 2.13% and the “% Cell Viability Replicate 2” value is reported as 0.94%.
For `CCCCCCC#Cc1cncc(-c2nnc(SCc3ccc(Cl)c(F)c3)n2C)c1` [drawing 101], the “% Cell Viability Average” value was 50.78%, the “% Cell Viability Replicate 1” value was 49.91% and the “% Cell Viability Replicate 2” value was 51.65%.
With `CCCCCCC#Cc1cncc(-c2nnc(SCc3cc([N+](=O)[O-])cc([N+](=O)[O-])c3)n2C)c1` [drawing 104] the “% Cell Viability Average” value was 41.70%, the “% Cell Viability Replicate 1” value was 42.56% and the “% Cell Viability Replicate 2” value was 40.84%.

Same assay, conditions: 72 hours
For `[H]/N=C(/N)N[C@H]1[C@H](O)[C@@H](O)[C@H](O[C@@H]2O[C@@H](C)[C@](O)(C=O)[C@H]2O[C@@H]2O[C@@H](CO)[C@H](O)[C@@H](O)[C@@H]2NC)[C@@H](N/C(N)=N\[H])[C@@H]1O` [Streptomycin, reference compound], the “% Cell Viability Average” value was 110.98% and 106.86% and 105.48%, the “% Cell Viability Replicate 1” value was 112.83% and 110.01% and 108.58% and the “% Cell Viability Replicate 2” value was 109.14% and 103.70% and 102.37%.
